In publication PMC4370192, “Discovery of Specific Inhibitors for Intestinal E. coli β-Glucuronidase through In Silico Virtual Screening” (The Scientific World Journal, 2015):

Columns and labels:
[1] = molecular target: T1, E. coli β-glucuronidase (eβG) (Escherichia coli, UniProt P05804); assay: In vitro βG-activity assay (pNPG hydrolysis), eβG; format: biochemical
T1 construct: histidine tag (N); made in house; host or cells: E. coli BL21 (DE3)
Description: (§1) Plasmid pRESTB containing βG gene and a histidine tag at the N-terminus was constructed as described. Recombinant βG (human and E. coli) was produced by isopropyl β-D-thiogalactopyranoside (IPTG) induction of BL21 (DE3) bacteria. βG was purified from bacterial supernatants by affinity chromatography on nickels Sepharose 6 Fast Flow (GE Healthcare). The column was washed by phosphate-buffered saline (PBS), with 50 mM imidazole, and βG was eluted by PBS with 250 mM imidazole. The purified βG was desalted on a Sephadex G-25 column equilibrated with PBS and stored at −80°C.
The candidate compounds were purchased from SPECS (The Netherlands). Each candidate was provided as a solid power and dissolved in 100% DMSO (Sigma-Aldrich) to 10 mM as stock. Candidates were screened for their inhibition specificity of eβG versus hβG, which were conducted at pH 7.3 or pH 5.4, in triplicate, respectively. 40 μL purified βG was treated with 10 μL compound solution at 37°C for 30 min and sequentially incubated with 50 μL of pNPG (Sigma-Aldrich) at 37°C for 30 min. Reactions were quenched with 5 μL of 2 N sodium hydroxide (Sigma-Aldrich). Each reaction consisted of 3.75 ng purified βG, 50 μM compound, and 5 mM pNPG in PBS containing 10% DMSO and 0.05% BSA (Sigma-Aldrich). βG-activities were measured by color development of pNP detected on a microplate reader at OD 405 nm. […] For IC50 determination, compounds at various concentrations (100 μM to 0.001 μM) were added.
Supplementary file 740815.f1.pdf: Fifty-nine candidate compounds were acquired from the initial virtually screening which was designed to target the bacterial loop of eβG and its active site. The docking energy scores of 59 candidate compounds measured by the DOCK program are -43 to -55 kcal/mol. (Table S1) The candidate compounds were purchased from SPECS (Zoetermeer, The Netherlands). Each candidate was rovided as a solid power and dissolved in 100% DMSO (Sigma-Aldrich, MO, USA) to 10 mM as stock. Candidates were screening for their inhibition specificity of eβG verse hβG, which were conducted at pH 7.3 or pH 5.4 in triplicate, respectively. 40 µL purified βG was treated with 10 µL compound solution at 37 °C for 30 min, and sequentially incubated with 50 µL of pNPG (Sigma-Aldrich) at 37 °C for 30 min. Reactions were quenched with 5 µL of 2 N sodium hydroxide (Sigma-Aldrich). Each reaction consisted of 3.75 ng purified βG, 50 µM compound, and 5 mM pNPG in PBS containing 10% DMSO and 0.05% BSA (Sigma-Aldrich). βG-activities were measured by color development of pNP detected on a microplate reader at OD 405 nm. […] Especially, the inhibiting ability against eβG activity was >95% in 7 candidates of eβG specific inhibitors (Table S1).
(§2) Fifty-nine candidate compounds were acquired from the initial virtually screening which was designed to target the bacterial loop of eβG and its active site. The docking energy scores of 59 candidate compounds measured by the DOCK program are -43 to -55 kcal/mol. (Table S1) The candidate compounds were purchased from SPECS (Zoetermeer, The Netherlands). Each candidate was provided as a solid power and dissolved in 100% DMSO (Sigma-Aldrich, MO, USA) to 10 mM as stock. Candidates were screening for their inhibition specificity of eβG verse hβG, which were conducted at pH 7.3 or pH 5.4 in triplicate, respectively. 40 μL purified βG was treated with 10 μL compound solution at 37 °C for 30 min, and sequentially incubated with 50 μL of pNPG (Sigma-Aldrich) at 37 °C for 30 min. Reactions were quenched with 5 μL of 2 N sodium hydroxide (Sigma-Aldrich). Each reaction consisted of 3.75 ng purified βG, 50 μM compound, and 5 mM pNPG in PBS containing 10% DMSO and 0.05% BSA (Sigma-Aldrich). βG-activities were measured by color development of pNP detected on a microplate reader at OD 405 nm. […]
percent of βG activity compared with the untreated control.
Especially, the inhibiting ability against eβG activity was >95% in 7 candidates of eβG specific inhibitors (Table S1).
Table S1. […]

human βG (hβG) = molecular target: T2, human βG (hβG) (Homo sapiens, UniProt P08236); assay: In vitro βG-activity assay (pNPG hydrolysis), hβG; format: biochemical
T2 construct: histidine tag (N); made in house; host or cells: E. coli BL21 (DE3)
T2 sequence (P08236 23-651): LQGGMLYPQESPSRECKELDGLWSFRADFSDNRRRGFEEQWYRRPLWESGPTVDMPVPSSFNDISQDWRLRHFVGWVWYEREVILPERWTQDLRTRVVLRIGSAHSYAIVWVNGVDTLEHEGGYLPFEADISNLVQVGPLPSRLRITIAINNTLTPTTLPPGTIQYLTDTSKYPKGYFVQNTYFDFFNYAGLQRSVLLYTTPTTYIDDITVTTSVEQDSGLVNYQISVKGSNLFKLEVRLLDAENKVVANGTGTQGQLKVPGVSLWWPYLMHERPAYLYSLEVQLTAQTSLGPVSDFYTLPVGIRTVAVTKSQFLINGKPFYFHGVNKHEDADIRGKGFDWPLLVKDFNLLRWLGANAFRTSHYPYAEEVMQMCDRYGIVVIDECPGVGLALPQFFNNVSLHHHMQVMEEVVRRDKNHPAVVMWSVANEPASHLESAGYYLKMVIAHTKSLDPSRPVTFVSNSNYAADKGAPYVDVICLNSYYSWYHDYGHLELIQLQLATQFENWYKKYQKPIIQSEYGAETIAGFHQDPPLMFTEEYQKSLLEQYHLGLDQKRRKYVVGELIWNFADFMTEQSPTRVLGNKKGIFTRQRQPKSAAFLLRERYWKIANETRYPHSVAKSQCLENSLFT
Description: as §1
The candidate compounds were purchased from SPECS (The Netherlands). Each candidate was provided as a solid power and dissolved in 100% DMSO (Sigma-Aldrich) to 10 mM as stock. Candidates were screened for their inhibition specificity of eβG versus hβG, which were conducted at pH 7.3 or pH 5.4, in triplicate, respectively. 40 μL purified βG was treated with 10 μL compound solution at 37°C for 30 min and sequentially incubated with 50 μL of pNPG (Sigma-Aldrich) at 37°C for 30 min. Reactions were quenched with 5 μL of 2 N sodium hydroxide (Sigma-Aldrich). Each reaction consisted of 3.75 ng purified βG, 50 μM compound, and 5 mM pNPG in PBS containing 10% DMSO and 0.05% BSA (Sigma-Aldrich). βG-activities were measured by color development of pNP detected on a microplate reader at OD 405 nm.
as §2, with “(Table” for “Fifty-nine candidate compounds were acquired from the initial virtually screening which was designed to target the bacterial loop of eβG and its active site. The docking energy scores of 59 candidate compounds measured by the DOCK program are -43 to -55 kcal/mol. (Table”, “rovided” for “provided”, “µL” for “μL”, “µM” for “μM”
candidate compounds were purchased from SPECS (Zoetermeer, The Netherlands). Each candidate was provided as a solid power and dissolved in 100% DMSO (Sigma-Aldrich, MO, USA) to 10 mM as stock. Candidates were screening for their inhibition specificity of eβG verse hβG, which were conducted at pH 7.3 or pH 5.4 in triplicate, respectively. 40 μL purified βG was treated with 10 μL compound solution at 37 °C for 30 min, and sequentially incubated with 50 μL of pNPG (Sigma-Aldrich) at 37 °C for 30 min. Reactions were quenched with 5 μL of 2 N sodium hydroxide (Sigma-Aldrich). Each reaction consisted of 3.75 ng purified βG, 50 μM compound, and 5 mM pNPG in PBS containing 10% DMSO and 0.05% BSA (Sigma-Aldrich). βG-activities were measured by color development of pNP detected on a microplate reader at OD 405 nm.

[2] = 50 μM compound, pH 7.3, percent of activity vs untreated control
[3] = pH 5.4, percent of activity vs untreated control
[4] = read-out: inhibition of eβG activity

T1 sequence (P05804 whole entry): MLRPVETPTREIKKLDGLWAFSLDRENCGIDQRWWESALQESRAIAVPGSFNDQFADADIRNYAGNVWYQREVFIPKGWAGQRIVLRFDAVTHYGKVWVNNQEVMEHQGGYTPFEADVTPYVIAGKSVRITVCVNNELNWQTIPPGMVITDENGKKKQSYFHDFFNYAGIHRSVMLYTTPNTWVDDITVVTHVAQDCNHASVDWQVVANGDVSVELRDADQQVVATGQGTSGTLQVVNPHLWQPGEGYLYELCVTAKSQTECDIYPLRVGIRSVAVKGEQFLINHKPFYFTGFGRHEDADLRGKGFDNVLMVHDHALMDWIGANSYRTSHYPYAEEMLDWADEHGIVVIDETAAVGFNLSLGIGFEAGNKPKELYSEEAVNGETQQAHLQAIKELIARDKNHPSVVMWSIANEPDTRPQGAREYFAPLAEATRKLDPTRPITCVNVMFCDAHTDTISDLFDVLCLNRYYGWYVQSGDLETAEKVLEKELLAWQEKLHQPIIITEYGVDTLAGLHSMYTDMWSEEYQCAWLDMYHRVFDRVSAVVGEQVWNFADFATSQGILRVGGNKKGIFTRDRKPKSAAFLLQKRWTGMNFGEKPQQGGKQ

| SMILES | eβG activity (%) with 50 μM compound [1, 2] | hβG activity (%) with 50 μM compound (human βG (hβG); [3]) | also measured |
| --- | --- | --- | --- |
| CC1(C)CC(O)C(C(O)c2cccc([N+](=O)[O-])c2)C(C)(C)N1 (centres unmarked) [Compound 4021] | 28.56% | 103.06% | – |
| O=C(O)C1CC=CCC1C(=O)Nc1ccc2ccccc2c1 (centres unmarked) [Compound 4043] | 32.98% | 81.24% | – |
| O=C1C=C(Nc2cccc3cc(S(=O)(=O)O)ccc23)c2ccccc2C1=O [Compound 4277] | 44.37% | 115.21% | – |
| O=C(O)c1ccc(NS(=O)(=O)c2ccc(Br)cc2)cc1O [Compound 4465] | 10.04% | 99.50% | – |
| Cc1cc(NS(=O)(=O)c2ccc(NC(=O)c3cc(Cl)ccc3[N+](=O)[O-])cc2)nc(C)n1 [Compound 5003] | 17.02% | 105.54% | – |
| N#Cc1cc2[nH]c(=O)c(=O)[nH]c2cc1[N+](=O)[O-] [Compound 5012] | 14.96% | 108.51% | – |
| Cn1c(O)c(C=NC(Cc2c[nH]c3ccccc23)C(=O)O)c(=O)n(C)c1=O (centres unmarked) [Compound 5033] | 9.33% | 116.12% | – |
| O=C(O)C1CC=CCC1C(=O)Nc1ccc(Br)c2cccnc12 (centres unmarked) [Compound 5244] | 26.21% | 44.38% | – |
| CC1=C(C)CC(C(=O)Nc2c(C)cccc2C)C(C(=O)O)C1 (centres unmarked) [Compound 5259] | 34.05% | 106.20% | – |
| N/C(=N\c1nc2c(c(=O)[nH]1)CCC2)Nc1ccccc1 [Compound 5905] | 24.93% | 104.96% | – |
| CC1=NN(c2ccc(Cl)cc2)C(=O)/C1=C\N1CCN(C)CC1 [Compound 6003] | 9.76% | 93.06% | – |
| N=c1c2sc3nc4ccccc4n3c2ncn1N [Compound 6015] | 10.40% | 72.07% | – |
| O=C(NC(NCc1ccco1)C(Cl)(Cl)Cl)c1ccc(Br)cc1 (centres unmarked) [Compound 6019] | 33.83% | 104.96% | – |
| COc1cc(C(=O)N2CCNCC2)cc(OC)c1OC [Compound 6368] | 44.87% | 116.03% | – |
| O=C(Nc1ccc(S(=O)(=O)N2CCCC2)cc1)c1[nH]ncc1[N+](=O)[O-] [Compound 6843] | 27.49% | 108.76% | – |
| COc1ccc(N2C(=O)CC(NC3CCCCNC3=O)C2=O)cc1 (centres unmarked) [Compound 7007] | 44.30% | 105.79% | – |
| N=C1C(c2nc3ccccc3c(=O)[nH]2)=C(O)CN1c1cccc(Cl)c1 [Compound 7036] | 6.70% | 95.45% | – |
| CC(=O)Nc1ccc(S(=O)(=O)Oc2ccc([N+](=O)[O-])cc2)cc1 [Compound 7100] | 20.58% | 112.56% | – |
| CC(C)(C)c1ccc(S(=O)(=O)/N=C2\C=CC(=O)c3ccccc32)cc1 [Compound 7145] | – | – | activity at 50 µM [1, 2]: 1%; inhibition at 10 µM [1, 4]: 55%; inhibition at 50 µM [1, 4]: > 95%; IC50 ([1]; recombinant eβG, pNPG substrate, pH 7.3): 31.6 µM; effect on hβG activity (human βG (hβG); 50 μM compound): does not hamper hβG activity; activity at 50 µM (human βG (hβG); 50 μM compound, pH 5.4, percent of activity vs untreated control): 120% |
| COc1ccc(S(=O)(=O)NCCN2CCOCC2)c2ccccc12 [Compound 7670] | 43.16% | 93.31% | – |
| CN(C)CCCNS(=O)(=O)c1ccc2c3c(cccc13)C(=O)N2 [Compound 8010] | 23.58% | 98.84% | – |
| NC1=C2N=C(c3ccc([N+](=O)[O-])cc3)NN2NN1 [Compound 8013a] | 60.40% | 100.33% | – |
| O=[N+]([O-])C12CNCC([N+](=O)[O-])(CNC1)C2 [Compound 8013b] | 32.91% | 93.72% | – |
